Assay results as given in patent US20210246159A1, “NOVEL FORM OF BARDOXOLONE METHYL” (Johnson Matthey Public Limited Company, priority 2020, published 2021).

Experiment: Storage stability of the crystalline form at 30° C. / 65% RH in a capped vial
Format: physicochemical
From the text: The crystalline formic acid solvate of bardoxolone methyl; more particularly, Form A, can be dried by any conventional methods known to one of ordinary skill in the art. In one embodiment, it is desirable to avoid extensive drying of the crystalline formic acid solvate of bardoxolone methyl; more particularly, Form A, to avoid the potential for desolvation. In one embodiment, it is desirable to store the crystalline formic acid solvate of bardoxolone methyl; more particularly, Form A, away from high heat and humidity. Form A remains stable at 30° C. at 65% RH for at least 5 days in a capped vial.

SMILES: COC(=O)[C@]12CCC(C)(C)C[C@H]1[C@H]1C(=O)C=C3[C@@]4(C)C=C(C#N)C(=O)C(C)(C)[C@@H]4CC[C@@]3(C)[C@]1(C)CC2 [Form A, di-formic acid solvate of bardoxolone methyl]
- time Form A remains stable: at least 5 days
